Experimental findings from ChEMBL document CHEMBL1201862, “PubChem BioAssay data set” (2004) are described below.

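Briefly, cells in 96-well plates were exposed to five compound concentrations for 48 h, and endpoints were estimated by linear interpolation. Abbreviation: GI50, concentration required for 50% inhibition of growth.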 Calls of active or inactive are those of the source. No stated cut-off is given here; in the data, active = GI50 up to about 1.1 µM and inactive = higher.

Common to all, as to assay: inhibition of tumour cell growth, NCI panel, 48 h
For assay [1], the system named is CCRF-CEM.
Assay [2] has as its system HCC 2998.
Assay [3] deals with MOLT-4.
Assay [4] deals with Malme-3M.
Assay [5] relates to K562.
For assay [6], the system named is SK-MEL-5.
Assay [7] deals with HCT-116.
Assay [8] concerns SNB-19.
In assay [9] the test system is ACHN.
The subject of assay [10] is TK-10.
Assay [11] concerns NCI-H23.
The subject of assay [12] is NCI-H522.
In assay [13] the test system is OVCAR-3.
The test system of assay [14] is U-251.
The test system of assay [15] is HOP-92.
In assay [16] the test system is SW-620.
Assay [17] relates to UACC-257.
Assay [18] relates to SK-MEL-2.
For assay [19], the system named is 786-0.

Regarding `O=C(CC1Sc2ccccc2NC1=O)Nc1ccc(Cl)cc1` (stereo not given), the GI50 in assay [1] is > 100 µM (inactive); in [2] it was 72.1 µM (inactive); in [3], > 100 µM (inactive); in [4] it was 46.2 µM (inactive); in assay [5], > 100 µM (inactive); in assay [6] it was > 100 µM (inactive). In addition, the GI50 in [7] is 42.9 µM (inactive); in assay [8] it was > 100 µM (inactive); in assay [9], 26.5 µM (inactive); in [10], > 100 µM (inactive); in assay [11] it was 46.2 µM (inactive); in assay [12], > 100 µM (inactive). Further, the GI50 was > 100 µM (inactive) in assay [13]; > 100 µM (inactive) in assay [14]; 19.6 µM (inactive) in assay [15]; > 100 µM (inactive) in assay [16]; > 100 µM (inactive) in assay [17]; > 100 µM (inactive) in assay [18].
Turning to `O=C1Cc2c([nH]c3cc(Br)ccc23)-c2ccccc2N1`, the GI50 was 2.19 µM (inactive) in [1]; 3.56 µM (inactive) in assay [3]; 20.8 µM (inactive) in assay [4]; 4.09 µM (inactive) in assay [5]; 16 µM (inactive) in assay [6]; 3.4 µM (inactive) in assay [7]. Moreover, the GI50 was 21.9 µM (inactive) in assay [8]; 17.5 µM (inactive) in assay [9]; 36 µM (inactive) in assay [19]; 29.3 µM (inactive) in assay [10]; 11.6 µM (inactive) in [11]; 15 µM (inactive) in [12]. Moreover, the GI50 in assay [13] is 19.6 µM (inactive); in [14], 14.4 µM (inactive); in assay [15], 31.1 µM (inactive); in assay [16], 6.81 µM (inactive).
In the case of `CCCCCC(/C=C/c1ncccc1OCCCCCC(=O)O)=N\NC1=NCCN1`, the GI50 in [1] is 53.6 µM (inactive); in assay [2], > 100 µM (inactive); in assay [3], 62.7 µM (inactive); in assay [4], > 100 µM (inactive); in assay [5], 60.3 µM (inactive); in [7], 43.4 µM (inactive). Also, the GI50 was > 100 µM (inactive) in [8]; > 100 µM (inactive) in assay [9]; > 100 µM (inactive) in assay [10]; 50.8 µM (inactive) in assay [12]; 89.9 µM (inactive) in [13]; 91 µM (inactive) in [15]. Also, the GI50 is 85.1 µM (inactive) in assay [16] and 48.9 µM (inactive) in assay [18].
In the case of `COC(=O)C1Cc2c([nH]c3ccccc23)C=N1` (stereo not given), the GI50 in [1], in assay [2], in assay [3], in assay [4], in [5] and in [6] was > 100 µM (inactive) throughout. The GI50 in assay [7] is > 100 µM (inactive); in assay [8], > 100 µM (inactive); in assay [9] it was > 100 µM (inactive); in assay [19], > 100 µM (inactive); in assay [10] it was 59.3 µM (inactive); in assay [11] it was > 100 µM (inactive). In addition, the GI50 in [12], in [13], in assay [14], in [15], in assay [16] and in [17] was > 100 µM (inactive) in each case.
For `COc1ccc(N(CC(=O)O)S(=O)(=O)c2ccccc2)cc1`, the GI50 in [1], in assay [3], in [4], in assay [5], in assay [6] and in [8] was > 100 µM (inactive) in each case. Moreover, the GI50 in assay [9], in assay [19], in assay [10], in assay [11], in assay [12] and in assay [13] was > 100 µM (inactive) each time. The GI50 in [14], in assay [15], in assay [16], in [17] and in [18] was > 100 µM (inactive) each time.
For `COc1ccc(C(c2ccc(C(C)C)cc(=O)c2O)c2ccc3cccnc3c2O)cc1` (stereo not given), the GI50 in assay [1] was 0.604 µM (active); in assay [3], 0.558 µM (active); in [4], 0.398 µM (active); in assay [5], 0.399 µM (active); in [6], 0.507 µM (active); in assay [7] it was 0.318 µM (active). For the same compound, the GI50 in assay [9] was 0.274 µM (active); in [19], 1.63 µM (inactive); in [11], 0.349 µM (active); in assay [12], 1.8 µM (inactive); in assay [13], 1.24 µM (inactive); in assay [14] it was 0.438 µM (active). Further, the GI50 in assay [15] is 0.235 µM (active); in assay [16], 3.68 µM (inactive); in [18], 2.02 µM (inactive).
Regarding `NC1C(O)C(O)C(CO)OC1n1cc(F)c(=O)[nH]c1=O` (stereo not given), the GI50 in assay [1], in assay [2], in assay [3], in assay [4], in assay [6] and in [7] was > 100 µM (inactive) throughout. Also, the GI50 in assay [8], in assay [9], in assay [10], in assay [11], in assay [12] and in assay [14] was > 100 µM (inactive) in each case. Further, the GI50 in [15], in assay [16], in [17] and in assay [18] was > 100 µM (inactive) each time.
`O=C1C(N2CCNCC2)=C(Cl)C(=O)c2ncccc21`: the GI50 was 8.59 µM (inactive) in assay [1]; > 10 µM (inactive) in [2]; 2.44 µM (inactive) in assay [3]; > 10 µM (inactive) in [4]; > 10 µM (inactive) in assay [5]; 5.79 µM (inactive) in assay [6]. In addition, the GI50 was 1.86 µM (inactive) in assay [7]; > 10 µM (inactive) in assay [8]; > 10 µM (inactive) in assay [9]; > 10 µM (inactive) in assay [19]; > 10 µM (inactive) in [10]; > 10 µM (inactive) in [11]. In addition, the GI50 in assay [13] is > 10 µM (inactive); in [14], > 10 µM (inactive); in [15], 3.25 µM (inactive); in [16], 3.72 µM (inactive); in assay [17] it was > 10 µM (inactive); in [18], > 10 µM (inactive).
For `Cc1cc(N(CCC#N)CCC#N)ccc1/C=C(\NC(=O)/C=C/c1ccccc1)C(=O)Nc1ccccc1Cl`, the GI50 in [1], in assay [2], in assay [3], in assay [4], in assay [5] and in assay [6] was > 100 µM (inactive) throughout. The GI50 in assay [7], in [8], in assay [9], in assay [19], in assay [11] and in assay [13] was > 100 µM (inactive) throughout. Moreover, the GI50 in assay [14] was 59.6 µM (inactive); in assay [15] it was 29.2 µM (inactive); in assay [16], > 100 µM (inactive); in assay [17], > 100 µM (inactive); in assay [18], > 100 µM (inactive).
In the case of `COC(=O)C1=C(C)N2CCOC2CC1c1ccccc1` (stereo not given), the GI50 in assay [1] was 45.4 µM (inactive); in assay [2], > 100 µM (inactive); in assay [3], 77.4 µM (inactive); in assay [5], 70.5 µM (inactive); in assay [6], > 100 µM (inactive); in assay [7], > 100 µM (inactive). In addition, the GI50 in assay [8] was > 100 µM (inactive); in [9], > 100 µM (inactive); in assay [10] it was > 100 µM (inactive); in assay [11], 84.1 µM (inactive); in [13], 49.5 µM (inactive); in [15], 44.7 µM (inactive). The GI50 in [16], in assay [17] and in assay [18] was > 100 µM (inactive) in each case.
With `CN1C2CCC1/C(=C/c1cccc3c1OCO3)C(=O)/C2=C\c1cccc2c1OCO2`, the GI50 in assay [1] was 78 µM (inactive); in assay [2] it was > 100 µM (inactive); in assay [3], > 100 µM (inactive); in assay [4], > 100 µM (inactive); in [5] it was > 10 µM (inactive); in assay [6], 37.9 µM (inactive). In addition, the GI50 in assay [7] was > 100 µM (inactive); in assay [9], > 100 µM (inactive); in [10], 21.3 µM (inactive); in [11] it was > 100 µM (inactive); in assay [13] it was 87.3 µM (inactive); in [14], 24.5 µM (inactive). Further, the GI50 in assay [15] is 22.8 µM (inactive); in assay [16], > 100 µM (inactive); in assay [17], > 100 µM (inactive); in assay [18] it was > 100 µM (inactive).
With `C=CC1(C)CCC2=C(CCC3C(C)(C(=O)OC)CCCC23C)C1=O` (stereo not given), the GI50 in assay [1] is 21.4 µM (inactive); in [4], 17.9 µM (inactive); in [5] it was 38.8 µM (inactive); in assay [6], 16.7 µM (inactive); in [7], 17.3 µM (inactive); in [8], 38.4 µM (inactive). The GI50 is 17.7 µM (inactive) in assay [9]; 19.9 µM (inactive) in [10]; 19.5 µM (inactive) in assay [11]; 15.1 µM (inactive) in assay [12]; 19.7 µM (inactive) in [13]; 15.6 µM (inactive) in assay [14]. Moreover, the figures for the GI50 in [16], in assay [17] and in assay [18] were 17.6 µM (inactive), 22.8 µM (inactive) and 17.9 µM (inactive), respectively.
